The record followed here is patent US7196112B2, “Cell adhesion inhibitors” (Biogen Idec MA Inc., priority 2004, dated 2007).

Molecules are shown by their SMILES.

Series [1] in a line: Pharmacokinetics in female Lewis rats, noncompartmental analysis. The settings on record: rat, in vivo. Here is the method:
Blood samples (250 μL/bleed) were obtained at specific timepoints after administration. For compound H, blood samples were drawn at 0, 8 minutes, 15 minutes, 30 minutes, and after 1 hour, 2, 4, 6, 8, 24, 32, 48, 72 and 168 hours following i.v. administration, and 1, 2, 4, 6, 8, 24, 32, 48, and 72 hours following s.c. administration. Serum samples were analyzed for compound H levels using an electrochemiluminescence assay. PK parameters were calculated from the […] data by noncompartmental analysis. PK parameters include CMAX (maximum serum concentration), tMAX (time to achieve maximum serum concentration), CL (systemic clearance), Vss (volume of distribution at steady state), t1/2 (terminal phase half-life), and bioavailability. Area under the curve (AUC) was calculated using the trapezoidal rule. Percent bioavailability was calculated from the following equation: (AUCextravascular/AUCIV)×(DoseIV/Doseextravascular)×100. For compound R^1, blood samples were drawn and analyzed as previously described (see Leone, D. R., et al. (2003) J. Pharmacol. Exp. Ther. 305:1150–1162).
Dilutions of test samples in 50 mM HEPES pH 7.5, 100 mM NaCl, 0.1% Triton X-100, 1 mM MnCl2, 1% rat plasma, 50 ng/mL α4β1 and 0.1 μg/mL ruthenium labeled mAb B5G10 were incubated at room temperature for 20 min. 0.5 nM A-biotin was added and samples were incubated for 60 minutes at room temperature. 50 μL of a 0.5 mg/mL solution of Dynabeads M-280 Streptavidin beads (Cat No. 402–175-02, Igen, Inc., Gaithersburg, Md.) that have been prepared in assay buffer containing 8% rat plasma was added and the samples were incubated for 30 minutes at room temperature with constant mixing. 150 μL of Origen assay buffer was added and samples were analyzed in a model 1100–1000 Origen analyzer (Igen, Inc) following the manufacturer's instructions. Concentrations of compound H were interpolated from a standard curve generated with compound H that had been diluted with plasma.
The pharmacokinetic properties of compounds H and R were evaluated by noncompartmental analysis following i.v. and s.c. administration in female Lewis rats (FIG. 2). […] Compound R was rapidly cleared from circulation.

The target in series [2] is α4β1 (Homo sapiens, UniProt P05556+P13612). Nature of the series: Equilibrium binding on Jurkat cells, competition with 35S-B as reporter.
Protocol: The α4β1-expressing Jurkat human T-cell line (a gift from S. Burakoff, Dana Farber Cancer Institute, Boston, Mass.), and the α4β7-expressing human B-cell line, JY (American Type Tissue Collection, Rockville, Md.) were maintained in culture at 37° C. in RPMI-1640 medium supplemented with 10% fetal bovine serum (FBS). K562 cell lines transfected with either the human α1-integrin chain (Phil Gotwells, Biogen, Inc) or with the human α2 integrin chain (a gift from M. Hemler, Dana Farber Cancer Institute, Boston, Mass.) were maintained in RPMI-1640 medium supplemented with 10% FBS and 1 mg/mL G418. All cells were periodically monitored for high integrin surface expression by FACS analysis. The binding of the various inhibitors to α4β1 were assessed on Jurkat cells by competition using radioactive ^35S-B as a reporter for a 1 occupancy. Jurkat cells were pelleted by centrifugation, washed two times with TBS (50 mM Tris HCl, 150 mM NaCl, 0.1% bovine serum albumin, 2 mM glucose, 10 mM HEPES pH 7.4), suspended at approximately 2×10^6 cells/mL in TBS, and counted using a Neubauer hemocytometer. The cells were further diluted 2×10^6 cells/mL with TBS containing 1 mM CaCl2 and 1 mM MgCl2 and treated with serial dilutions of test compound for 1 hour, and then 5 nM ^35S-B, an amount sufficient to bind all unoccupied receptors, was added for 10 minutes before measuring the bound counts. The cells were then pelleted by centrifugation, resuspended in 100 μL of TBS plus Mn^2+, and transferred to a scintillation vial containing 2.9 mL of ScintiVerse II (Fisher Scientific). Cell-associated radioactivity was quantified by scintillation counting. All studies were performed in siliconized 1.5 mL eppendorf tubes with a standard 1 mL sample volume. Each condition was tested in at least two independent studies. Non-specific binding of ^35S-B to cells was assessed at each cell density and ^35S-B concentration in TBS but in the absence of added metal ion. Specific counts bound were calculated by subtracting non specific counts from total counts bound. Counts bound under these conditions measures integrin that is not occupied by the test compound and is therefore free to bind the ^35S-B. The competition format was also used for kinetic binding studies. Binding and dissociation constants were calculated from α4β1 that remained free to bind the ^35S-B after treatment with test compound.
The affinities of the PEGylated inhibitors for α4β1 were calculated from association and disassociation rate constants using a kinetic analysis. For these studies, Jurkat cells expressing α4β1 (75,000 copies/cell) were treated with the inhibitors and then ^35S-B was added as a probe to detect free α4β1. The levels of bound inhibitor were calculated from a measure of total ^35S-B bound in the absence of added inhibitor and counts bound following inhibitor treatment. […] IC50 values were calculated from equilibrium binding studies on Jurkat cells through competition using ^35S-B as a reporter in buffer containing 1 mM Ca^2+ and 1 mM Mg^2+.
Second, the effect of protein binding on the affinity of the PEGylated inhibitors for α4β1 on Jurkat cells was evaluated from equilibrium binding measurements.
For series [3], the target named is T1, α4β7 (Homo sapiens, UniProt P13612+P26010).
T1 construct: host or cells: JY human B-cell line
T1 sequence (P13612 34-1032): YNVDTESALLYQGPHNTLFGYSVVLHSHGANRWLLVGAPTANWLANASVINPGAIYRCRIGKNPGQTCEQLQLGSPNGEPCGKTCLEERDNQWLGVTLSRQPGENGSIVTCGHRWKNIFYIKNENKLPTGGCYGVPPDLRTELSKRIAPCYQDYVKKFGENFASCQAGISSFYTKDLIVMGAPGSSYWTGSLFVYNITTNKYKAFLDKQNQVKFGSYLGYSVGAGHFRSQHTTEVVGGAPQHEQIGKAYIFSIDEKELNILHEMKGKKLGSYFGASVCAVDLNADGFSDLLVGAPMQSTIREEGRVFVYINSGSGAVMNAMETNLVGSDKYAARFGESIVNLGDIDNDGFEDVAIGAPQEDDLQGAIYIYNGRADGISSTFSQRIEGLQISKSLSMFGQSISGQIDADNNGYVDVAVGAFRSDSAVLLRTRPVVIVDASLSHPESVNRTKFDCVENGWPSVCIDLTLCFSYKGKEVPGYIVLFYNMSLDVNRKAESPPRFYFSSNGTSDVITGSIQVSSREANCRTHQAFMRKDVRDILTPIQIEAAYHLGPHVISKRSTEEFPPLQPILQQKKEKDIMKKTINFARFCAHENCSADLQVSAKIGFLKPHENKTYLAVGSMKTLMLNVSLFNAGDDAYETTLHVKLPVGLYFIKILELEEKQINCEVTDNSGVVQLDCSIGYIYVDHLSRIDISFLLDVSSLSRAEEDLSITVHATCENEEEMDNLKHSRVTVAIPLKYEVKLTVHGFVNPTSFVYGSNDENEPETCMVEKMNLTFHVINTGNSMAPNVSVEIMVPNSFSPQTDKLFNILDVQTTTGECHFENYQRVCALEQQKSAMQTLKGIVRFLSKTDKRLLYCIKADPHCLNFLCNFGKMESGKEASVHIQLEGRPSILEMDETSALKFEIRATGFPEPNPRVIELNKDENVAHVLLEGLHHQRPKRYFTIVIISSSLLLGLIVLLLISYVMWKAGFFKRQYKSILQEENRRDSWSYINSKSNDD
T1 sequence (P26010 20-798): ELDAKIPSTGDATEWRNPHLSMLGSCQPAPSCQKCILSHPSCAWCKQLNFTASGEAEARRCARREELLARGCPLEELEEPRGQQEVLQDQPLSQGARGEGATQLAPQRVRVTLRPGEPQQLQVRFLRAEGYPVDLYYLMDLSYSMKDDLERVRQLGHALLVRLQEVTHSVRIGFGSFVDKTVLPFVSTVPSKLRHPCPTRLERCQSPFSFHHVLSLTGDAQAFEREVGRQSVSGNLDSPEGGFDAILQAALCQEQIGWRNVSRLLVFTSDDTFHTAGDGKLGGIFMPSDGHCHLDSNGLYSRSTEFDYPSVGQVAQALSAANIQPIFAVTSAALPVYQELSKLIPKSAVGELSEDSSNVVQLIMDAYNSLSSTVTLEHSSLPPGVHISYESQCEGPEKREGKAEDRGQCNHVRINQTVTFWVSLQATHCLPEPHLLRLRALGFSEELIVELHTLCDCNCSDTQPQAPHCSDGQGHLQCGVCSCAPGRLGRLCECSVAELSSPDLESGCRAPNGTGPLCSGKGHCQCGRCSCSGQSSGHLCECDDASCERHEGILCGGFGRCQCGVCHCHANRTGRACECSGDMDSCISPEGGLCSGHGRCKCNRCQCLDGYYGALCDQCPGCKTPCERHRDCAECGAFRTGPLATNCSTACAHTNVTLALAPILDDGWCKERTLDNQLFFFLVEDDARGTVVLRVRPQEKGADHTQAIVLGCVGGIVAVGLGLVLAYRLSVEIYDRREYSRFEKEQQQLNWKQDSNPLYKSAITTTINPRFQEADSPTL
In words: Direct binding assay for α4β7 (VCAM-Ig, JY cells). Here is the method: The results presented in Table 3 summarize the integrin selectivity for PEGylated inhibitors. The selectivity of the PEGylated inhibitors for the four integrins indicated were tested in adhesion formats for α1β1 and α2β1, and by direct binding for α4β7. Serial dilutions of each compound were tested and IC50 values calculated from the concentration dependence of the inhibition curves. KD values derived from kinetic data are shown for binding to α4β1.

[4] abbreviates: IC50, buffer with 1 mM Ca2+ and 1 mM Mg2+, no plasma.

Sequence of α4β1 (P05556 21-798, one chain of several): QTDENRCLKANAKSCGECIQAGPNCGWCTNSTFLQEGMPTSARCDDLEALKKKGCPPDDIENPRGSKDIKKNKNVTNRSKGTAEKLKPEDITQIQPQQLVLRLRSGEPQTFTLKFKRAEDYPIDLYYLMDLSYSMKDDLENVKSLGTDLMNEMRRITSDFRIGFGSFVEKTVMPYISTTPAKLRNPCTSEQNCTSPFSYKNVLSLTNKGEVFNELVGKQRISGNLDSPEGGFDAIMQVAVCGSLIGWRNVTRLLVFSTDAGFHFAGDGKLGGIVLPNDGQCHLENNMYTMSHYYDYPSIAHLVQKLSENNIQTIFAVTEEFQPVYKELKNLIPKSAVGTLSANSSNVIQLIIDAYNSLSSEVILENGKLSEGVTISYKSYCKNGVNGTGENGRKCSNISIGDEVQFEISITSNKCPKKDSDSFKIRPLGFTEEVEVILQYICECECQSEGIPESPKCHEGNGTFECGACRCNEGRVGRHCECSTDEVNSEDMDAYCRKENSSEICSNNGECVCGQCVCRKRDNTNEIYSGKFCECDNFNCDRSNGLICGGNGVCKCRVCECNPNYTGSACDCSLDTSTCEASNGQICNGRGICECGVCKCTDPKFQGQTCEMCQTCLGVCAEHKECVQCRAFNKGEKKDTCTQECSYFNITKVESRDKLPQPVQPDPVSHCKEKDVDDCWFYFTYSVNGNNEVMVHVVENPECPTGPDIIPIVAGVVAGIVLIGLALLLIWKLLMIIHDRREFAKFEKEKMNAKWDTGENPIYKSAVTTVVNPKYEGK

Broadly, the half-life is the time needed for the level to fall by half in the phase considered. Lower therefore signals fast loss. A word on the bioavailability: it is dose-corrected exposure relative to a reference, in per cent. A high value points to good availability. The term IC50 denotes the concentration that gives 50% inhibition. Higher therefore signals weaker potency in that assay. On to `Cc1ccccc1NC(=O)Nc1ccc(CC(=O)N(C)[C@@H](CC(C)C)C(=O)NCC[C@H](NC(=O)C2CCCN2S(=O)(=O)c2ccccc2)C(=O)O)cc1` (stereo partly drawn) [Compound B, 2S-[(1-benzenesulfonyl-pyrrolidine-2S-carbonyl)-amino]-4-[4-methyl-2S-(methyl-{2-[4-(3-o-tolyl-ureido)-phenyl]-acetyl}-amino)-pentanoylamino]-butyric acid], for which the half-life in series [1] (iv) is 2.5 h. For the same compound, the bioavailability in series [1] (sc) is 21%. The IC50 in series [2] (IC50(HP), 100% human plasma) is 1.5 nM; in series [2] (setting [4]) it was 0.21 nM; in series [3] (direct binding), > 1000 nM.

For orientation: AUC means concentration integrated over time. For orientation: Cmax means the maximum level reached in the sampled fluid or tissue. One may read the Tmax as the time from dosing to the highest level. What is called Vd is the apparent volume that relates the amount in the body to the concentration in plasma or blood. The clearance is a measure of how efficiently the substance is removed, as volume per time. In the case of `Cc1ccccc1NC(=O)Nc1ccc(CC(=O)N(C)[C@@H](CC(C)C)C(=O)NCC[C@H](NC(=O)[C@@H]2CCCN2S(=O)(=O)c2cc(Cl)cc(Cl)c2)C(=O)O)cc1` [Compound R, 2S-{[1-(3,5-dichloro-benzenesulfonyl)-pyrrolidine-2S-carbonyl]-amino}-4-[4-methyl-2S-(methyl-{2-[4-(3-o-tolyl-ureido)-phenyl]-acetyl}-amino)-pentanoylamino]-butyric acid], in series [1] (iv, 1 mg/kg), the AUC was 2300 ng·h/mL, the peak concentration (Cmax) came out at 13100 ng/mL, the time of peak concentration (Tmax) amounted to 0 h and the Vd was determined as 0.168 L/kg. In series [1] (iv, 1 mg/kg), the clearance is 7.1 mL/min/kg and the half-life is 1.1 h. In addition, in series [1] (sc, 10 mg/kg), the exposure (AUC) is 6100 ng·h/mL, the CL stood at 27.17 mL/min/kg, the concentration peaked (Cmax) at 780 ng/mL and the time of peak concentration (Tmax) is 0.5 h. Moreover, in series [1] (sc, 10 mg/kg), the bioavailability worked out at 20%, the half-life was 2.7 h and the “time >100 ng/mL blood levels were maintained” value was determined as 12 h. In series [2] (IC50(HP), 100% human plasma), this compound displayed a half-maximal inhibitory concentration (IC50) of 0.8 nM. Also, the 50% inhibitory concentration (IC50) in series [2] (setting [4]) amounted to 0.15 nM. The “affinity higher for α4β1 than for α4β7” value in series [3] (α4β1 versus α4β7) is listed as > 2,000 fold.
